The test system of one experiment is TGF-β mRNA. Description: BDL mice liver quantitative RT-PCR, TGF-β. Type of experiment: in vivo. The conditions noted are these: for TGF-β relative mRNA expression level: BDL mice liver, normalized to 36B4, Sham 1.00, mean ± SD. On the procedure: (§1) Quantitative RT-PCR: Total ribonucleic acid (RNA) was extracted from liver samples using RNAiso (Takara Bio, Japan) according to the manufacturer's instructions. One μg of RNA was reverse-transcribed using a reaction mixture containing 4.4 mM magnesium chloride (MgCl2) (F. Hoffmann-La Roche, Switzerland), 40 U RNase inhibitor (Toyobo, Japan), 0.5 mM dNTP (Promega, USA), 6.28 μM random hexamer (Promega), 5× first strand buffer (Promega), 10 mM dithiothreitol (Invitrogen, USA) and 200 U MMLV-RT (Invitrogen) in a final volume of 20 μL. The reaction was carried out for 1 hour at 37° C., followed by 5 minutes at 99° C. Real-time PCR was performed using real-time PCR DICE and TB Green™ Premix Ex Taq™ II (Takara Bio). To calculate the relative mRNA expression level, the expression of each gene (α-SMA, TIMP-1, TGF-β and Collagen Type 1) was normalized to that of reference gene 36B4 (gene symbol: Rplp0). Information regarding the PCR-primer sets and the plate layout are described in Tables 8 and 9.

Experiment [1] has as its system NAFLD patients. The experiment in a line: Phase IIa study in NAFLD patients: panel of protein biomarkers (proteomics). Type of experiment: in vivo, human. From the text: (§2) The study was planned to include 96 evaluable patients with 32 patients randomized per treatment group.
The subject of another experiment is α-SMA mRNA. The experiment in a line: BDL mice liver quantitative RT-PCR, Alpha-SMA. The format is in vivo. The conditions noted are these: for Alpha-SMA relative mRNA expression level: BDL mice liver, normalized to 36B4, Sham 1.00, mean ± SD. On the procedure:
as §1

Experiment [2] deals with NAFLD patients. Description: Phase IIa study in NAFLD patients: ALP and liver fibrosis markers. Type of experiment: in vivo, human. Particulars: 2 g. Here is the method: as §2
Clinical Laboratory Safety Tests: Safety tests were performed for hematology, serum biochemistry, coagulation, lipid profile, and urinalysis: Blood and urine samples were taken as per the Study Flow Chart in Table 19 for routine hematology, serum biochemistry, coagulation and urinalysis tests, along with a Lipid Profile. All samples were analyzed in the central laboratory. All subjects were fasted for a minimum of 8 hours prior to blood sampling. […]

Experiment [3] deals with cholestasis induced by BDL. The experiment in a line: BDL mice: Sirius red staining of liver sections, fibrosis area. The format is in vivo. The conditions noted are these: for Sirius red-positive area: BDL mice liver, Day 14, mean ± SD, n = 8; for fibrosis area compared with the Vehicle group: BDL mice. On the procedure: […]: To visualize collagen deposition, Bouin's fixed liver sections were stained using picro-Sirius red solution (Waldeck, Germany). For quantitative analysis of fibrosis area, bright field images of Sirius red-stained sections were captured using a digital camera (DFC295; Leica, Germany) at 100-fold magnification, and the positive areas in 5 fields/section were measured using ImageJ software (National Institute of Health, USA).

In experiment [4] the test system is NAFLD patients. Description: Phase IIa study in NAFLD patients: OWL liver care test. Type of experiment: in vivo, human.
Excerpt: as §2
OWL Liver Care is a test that was developed based on the plasma lipidomics in biopsy-confirmed NASH patients and provides high predictive values. OWL Liver Care has an area under the curve (AUC) of 0.88 for distinguishing NAFLD and normal liver patients and an AUC of 0.79 for distinguishing NAFLD without steatohepatitis and NASH patients.

Another experiment relates to Alpha-SMA mRNA. The experiment in a line: UUO mice kidney quantitative RT-PCR, Alpha-SMA. The format is in vivo. On the procedure:
as §1, with “from kidney” for “from liver”, “[…] (mM) of” for “4.4 mM”, “relative […] (mRNA)” for “relative mRNA”, “gene (e.g., α-SMA,” for “gene (α-SMA,”, “Tables 1” for “Tables 8”, “and 2.” for “and 9.”

The mark [5] stands for this setting: BDL mice, DS102 treatment groups as a whole.
Setting [6] is: 1 g per day, baseline diagnosis NASH (19 at baseline).
[7] abbreviates: 1 g per day, baseline diagnosis No NAFLD (4 at baseline).
[8] abbreviates: 1 g per day, baseline diagnosis Steatosis (5 at baseline).
Setting [9] is: 2 g per day, baseline diagnosis NASH (12 at baseline).
[10] abbreviates: 2 g per day, baseline diagnosis No NAFLD (3 at baseline).
Where [11] appears, read: 2 g per day, baseline diagnosis Steatosis (14 at baseline).
Setting [12] is: 50 mg/kg PO QD Day 0-13, normalized to 36B4, Sham 1.00, mean ± SD.

The values below come from US12076304B2, “Compositions comprising 15-HEPE and methods of treating or preventing hematologic disorders, and/or related diseases” (priority 2020, dated 2024).

Entries after “also recorded” stand apart in the source; their conditions may differ.

Consider 15-HEPE [DS102], for which the “TGF-β relative mRNA expression level” value in the experiment on TGF-β mRNA (50 mg/kg PO QD Day 0-13) is on record as 1.48 ± 0.48; in the experiment on TGF-β mRNA (250 mg/kg PO QD Day 0-13) it was 1.50 ± 0.44; in the experiment with TGF-β mRNA (500 mg/kg PO QD Day 0-13), 1.00 ± 0.23. Besides, in the experiment on TGF-β mRNA (BDL mice, 500 mg/kg PO QD Day 0-13), the “TGF-β mRNA expression level compared with the Vehicle group” value is listed as “significant decrease”. Further, the “TGF-β mRNA expression level, Vehicle group vs the DS102 treatment groups” value with TGF-β mRNA (setting [5]) is “no significant differences”. In addition, in the experiment on NAFLD patients [1] (1 g), the “TR (protein level)” value was “significant reductions”. Further, the “proteins that passed the 1st threshold based on the Benjamini-Hochberg testing” value in the experiment with NAFLD patients [1] (1 g group, Placebo group 0 proteins) is listed as 1. In addition, in the experiment on NAFLD patients [1] (2 g), the “NASH drug development targets (CCR215 signaling, Galectin3, AOC3)” value is given as “decreased”. In addition, the “inflammatory and pro-fibrotic proteins (protein expression)” value in the experiment with NAFLD patients [1] (2 g, Table 21: PAI-1, TIMP-1, DPP4, TLT2, CCL16, MCP-1, SAA4, PI3, TR, LILRB1, TNRSF11A, Table 22: TL12, AOC3, PRSS2) was “decreased”. In addition, in the experiment with NAFLD patients [1] (2 g, panel of greater than 350 protein biomarkers), the “number of markers (inflammation, fibrosis, lipid metabolism, apoptosis, chemotaxis) with significantly downregulated expression” value is given as “over 150”. Further, the “expression of multiple circulating chemokines” value in the experiment on NAFLD patients [1] (NAFLD patients, vs placebo) was “decreased”. For the same molecule, the “expression of multiple proteins associated with increased cardiovascular risk” value in the experiment with NAFLD patients [1] (NAFLD patients, vs placebo) is reported as “decreased”. The “expression of multiple tumor necrosis factor receptor superfamily members” value in the experiment on NAFLD patients [1] (NAFLD patients, vs placebo) is listed as “decreased”. In addition, the “expression of multiple vascular adhesion molecules” value in the experiment with NAFLD patients [1] (NAFLD patients, vs placebo) is “decreased”. Further, the “Alpha-SMA relative mRNA expression level” value in the experiment on α-SMA mRNA (50 mg/kg PO QD Day 0-13) was determined as 3.21 ± 1.67; in the experiment on α-SMA mRNA (250 mg/kg PO QD Day 0-13), 2.66 ± 1.33; with α-SMA mRNA (500 mg/kg PO QD Day 0-13), 1.42 ± 0.75; in the experiment with Alpha-SMA mRNA (setting [12]), 3.74 ± 0.81; in the experiment with Alpha-SMA mRNA (500 mg/kg PO QD Day 0-13, normalized to 36B4, Sham 1.00, mean ± SD) it was 5.54 ± 1.54. Moreover, the “α-SMA mRNA expression level compared with the Vehicle group” value with α-SMA mRNA (BDL mice, 500 mg/kg PO QD Day 0-13, 500 mg/kg) was “tended to decrease; also recorded: trend approaching significance”. In the experiment with α-SMA mRNA (setting [5]), the “α-SMA mRNA expression level, Vehicle group vs the DS102 treatment groups” value is given as “no significant differences”. For the same molecule, the “alkaline phosphate (ALP)” value with NAFLD patients [2] is reported as “reduced”. Also, the “multiple markers for liver fibrosis” value in the experiment with NAFLD patients [2] is listed as “reduced”. The Sirius red-positive area stood at 1.70 ± 0.63% in experiment [3] (50 mg/kg PO QD Day 0-13), 1.06 ± 0.48% in experiment [3] (250 mg/kg PO QD Day 0-13) and 1.42 ± 0.60% in experiment [3] (500 mg/kg PO QD Day 0-13). Further, the “fibrosis area compared with the Vehicle group” value in experiment [3] (50 mg/kg PO QD Day 0-13) is recorded as “no significant difference”; in experiment [3] (250 mg/kg PO QD Day 0-13), “significant decrease”; in experiment [3] (500 mg/kg PO QD Day 0-13, 500 mg/kg), “tended to decrease; also recorded: trend approaching significance”. Moreover, the “OWL test Change in Diagnosis (Week 16 vs. baseline): Improvement, patients” value with NAFLD patients [4] (setting [6]) amounted to 5; with NAFLD patients [4] (setting [9]) it was 5; in the experiment on NAFLD patients [4] (setting [11]), 1. Also, the “OWL test Change in Diagnosis (Week 16 vs. baseline): Stable, patients” value in the experiment on NAFLD patients [4] (setting [6]) is given as 14; in the experiment on NAFLD patients [4] (setting [7]), 3; with NAFLD patients [4] (setting [8]), 2; in the experiment on NAFLD patients [4] (setting [9]), 7; in the experiment on NAFLD patients [4] (setting [10]) it was 2*, **; in the experiment with NAFLD patients [4] (setting [11]), 9. Besides, the “OWL test Change in Diagnosis (Week 16 vs. baseline): Worsening, patients” value came out at 1 in the experiment with NAFLD patients [4] (setting [7]), 3 in the experiment with NAFLD patients [4] (setting [8]), 1 in the experiment with NAFLD patients [4] (setting [10]) and 4 in the experiment on NAFLD patients [4] (setting [11]). Further, the “OWL liver care diagnosed NASH” value in the experiment on NAFLD patients [4] (NAFLD patients, dose dependent, vs placebo at Week 16) is “significantly improved and normalized”.
Take `CCCCCC(O)/C=C/C=C\C/C=C\CCCCCCC(=O)O` (stereo not shown) [DS109, 15-HETrE]: the “Alpha-SMA relative mRNA expression level” value in the experiment with Alpha-SMA mRNA (5 mg/kg PO QD Day 0-13, normalized to 36B4, Sham 1.00, mean ± SD) came out at 3.87 ± 0.82; with Alpha-SMA mRNA (setting [12]), 4.61 ± 3.15; in the experiment on Alpha-SMA mRNA (250 mg/kg PO QD Day 0-13, normalized to 36B4, Sham 1.00, mean ± SD), 4.85 ± 1.22.
